US20240228487A1, “FUSED HETEROCYCLIC COMPOUND AND APPLICATION THEREOF, PHARMACEUTICAL COMPOSITIONS CONTAINING SAME AND APPLICATION THEREOF” (ZHEJIANG UNIVERSITY, priority 2021, published 2024)

Assays:
[1] = tested on: C57BL/6 mice, transient middle cerebral artery occlusion (tMCAO); experiment: mouse tMCAO cerebral stroke model (Embodiment 69); type: in vivo; details: 3 mg/kg tail vein injection 3 h after reperfusion
Source text: After isoflurane inhalation gas anesthesia of 22-25 g male C57BL/6 mice, the fiber-optic probes of a laser Doppler flowmeter were fixed to the skull of the mice with glue for monitoring the cerebral blood flow of the middle cerebral artery (MCA) supplying cortex. The mice were fixed in the supine position, and the middle of the neck was dehaired and routinely sterilized with 75% alcohol. An approximately 1.5 cm incision was made in the middle of the neck, and the skin of the neck was incised, and the muscle and fascia were separated along the inner edge of the sternocleidomastoideole; the right carotid artery sheath was bluntly separated to expose the right common carotid artery (CCA), external carotid artery (ECA), and internal carotid artery (ICA); after the surgical area was exposed satisfactorily, the CCA and ICA were temporarily clipped with arterial clips, and a small incision was made at the proximal end of the ECA with microsurgical scissors, and a nylon monofilament suture was inserted from the small incision along the ECA, and gently pushed into the intracranial area in the direction of the ICA for about 11.5±0.5 mm, blocking the beginning of the middle cerebral artery. Only the animals whose blood flow values decreased to 20% of the basic value were selected according to the blood flow data monitored by the flowmeter. After 90 minutes of ischemia, the monofilament sutures were gently withdrawn out, the arterial stumps were tied tightly, the surgical wounds were inspected, the bleeding was thoroughly stopped, a small amount of penicillin powder was sprinkled locally to prevent infection, and the subcutaneous tissues and the skin were sutured layer by layer, thus completing the ischemia reperfusion injury model. A heating plate was used to maintain the body temperature of the animals during surgery. After completion of the surgery, the sutured mice were placed in a heat preservation and humidification box until the mice recovered activities. Animals in the sham-operated group were subjected to the same surgical procedure but without middle artery occlusion.
Clean-grade male C57BL/6 mice were randomly divided into five groups, namely, the sham-operated group, the group of the positive control drug Edaravone(3 mg/kg), and the 3 mg/kg dose group of compounds II-1, II-23 and III-1.
The mice were subjected to tail vein injections of Edaravone, II-1, II-23, and III-1 respectively 3 h after modeling and reperfusion; the sham-operated group was injected with an equal volume of saline, and II-1, II-23, III-1, and Edaravone were dissolved in 0.9% saline solution. Neurological function scores and TTC staining of mice were performed 24 h after ischemia-reperfusion, and the results are shown in FIGS. 6, 7 and 8.
The mice were decapitated 24 h after ischemia-reperfusion, the coronal planes of the brains were cut into brain slices of about 2 mm thickness uniformly. The brain slices were placed in 0.25% 2,3,5-triphenyltetrazolium chloride (TTC) solution, incubated at 37° C. Celsius for 30 minutes away from light, stained, and fixed in 4% paraformaldehyde neutral buffer (pH 7.4) overnight. The processed brain slices were photographed using a macro camera, and Image J image analysis software was used to calculate and count the cerebral infarct volume, and the measured results are shown in FIG. 7. The formula for calculating the percentage of infarct volume was (sum of the left uninfarcted area −sum of the right uninfarcted area)/sum of the left uninfarcted area×100%.
According to the five-level, four-point standard of score, the mortality and neuromotor dysfunction scores of each group of mice were performed, and the results are shown in FIG. 8. […]

[2] = tested on: dopaminergic neurons differentiated from iPSC derived from disseminated PD patients; experiment: cell viability (cell titer glo) of iPSC differentiated dopaminergic neurons; type: cell-based, human; details: II-23 0.6 μM, ACA 0.5 μM, from day 15 of culture; CTG kit
Description: Using normal and disseminated PD patient-derived induced pluripotent stem cells (iPSC), performing drug interventions using the TRPM2 inhibitors ACA and II-23 after they were induced and differentiated into mature dopaminergic neurons, the drug treating method is as follows: • a. Calculating the materials for the experiment, and starting preparing when the dopaminergic neurons are differentiated to the 8th day. The petri dishes should be treated with 33 μg/mL PDL overnight and washed with sterilized water. After drying, 2 μg/mL of laminin was added and incubated overnight. Both PDL and laminin can be recycled for reuse. • b. Digesting and collecting the differentiated cells with Accutase, and counting with a cell counting plate, and then diluting to 500,000/mL with maturation medium (Y-27632 should be added). Fluorescence confocal imaging was performed using a confocal dish inoculated with 2 mL/dish, and cell viability assays were performed using a 96-well plate inoculated with 100 μL/well. Taking this time point as the 10th day, changing to Y-27632-free medium on the 11th day, and changing the medium every two days. • c. When the cells were cultured to the 15th day, treating the drugs to a final concentration with the medium, the working concentration of ACA is 0.5 μM, and the working concentration of II-23 is 0.6 μM, and the drug-containing medium was changed every four days. […]

Q: What does the source list for `CCN(CC)C(=O)c1cc(C(=O)c2ccccc2)n2cccc2c1` [II-23, 5-Benzoyl-N, N-diethylindolizine-7-formamide]?
A: area of cerebral infarction caused by tMCAO ([1]; TTC staining 24 h after ischemia-reperfusion): significantly reduced; neuromotor dysfunction scores caused by tMCAO ([1]; scored 24 h after ischemia-reperfusion): significantly reduced; cell viability of differentiated dopaminergic neurons derived from disseminated PD patients [2]: restored
